Measured values reported in patent publication US12594282B2, “Use of small molecule compounds in the treatment of diseases mediated by lung epithelial cell injury and/or vascular endothelial cell injury” (Guangzhou Cellprotek Pharmaceutical Co., Ltd., priority 2020, dated 2026).

Assays:
HPAEpiC cells = assay: LPS+hypoxia model, LDH release, alveolar epithelial cells; format: cell-based, human
Description: HPAEpiC cells were cultured with alveolar epithelial cell medium. When the cells grew to about 80% confluence, the cells were digested with 0.25% trypsin, and then pipetted evenly with alveolar epithelial cell medium. The cell concentration was adjusted to 2×10^5 cells/mL, and the cells were seeded in a 24-well plate at 400 uL/well. The experiment was conducted when the cells grew to about 70% confluence.
The hypoxia workstation was set to have an oxygen concentration of 1% (1% O2, 5% CO2, 94% a temperature to 37° C., and a humidity of 85%. After the conditions in the hypoxia workstation were stable, 1 mg/mL LPS was directly added to the cells to make the final concentration of LPS […], and then the cells were cultured in the hypoxia workstation for 24 hours.
Before being subjected to the model, the cells in the drug group were pre-incubated with vehicle (20% hydroxypropyl cyclodextrin solution) or drug (the final concentration of YC-6 was 1 μM, 5 μM, 10 μM) for 1 hour, and then added with LPS, and placed in the hypoxia workstation for constructing the model, until the end of the experiment. The model control group was not treated with any drug, and the normal group was placed in a cell incubator for routine culturing. 10 μM dexamethasone was used as the drug control. Three replicates were performed for each treatment group.

[1] = system: Human umbilical vein endothelial cells (HUVEC); assay: OGD-R injury model, LDH detection, HUVEC; format: cell-based; details: OGD 4 hours, restoration 24 hours, 1, 3, 10 μM, prophylactic (1 hour before OGD) or therapeutic (at restoration)
Description: HUVEC cells were cultured in modified DMEM medium containing 10% fetal bovine serum. When the cells reached about 80% confluence, the cells were digested with 0.25% trypsin, and then pipetted evenly with modified DMEM containing 10% fetal bovine serum. The cell concentration was adjusted to 1×10^5 cells/mL, and the cells were seeded at 400 uL/well in a 24-well plate, and the experiment was carried out when the cells grew to about 70% confluence. RAOEC cells were cultured in high-glucose DMEM medium containing 10% fetal bovine serum, and the seeding conditions were the same as those for HUVECs.
The hypoxia workstation was set to have an oxygen concentration of 1% (1% O2, 5% CO2, 94% N2), a temperature of 37° C., and a humidity of 85%. A sugar-free DMEM medium was placed in the hypoxia workstation for pre-hypoxia for 3 hours. The medium in the culture plate was aspirated, and the plate was washed twice with preheated sugar-free DMEM medium, and 100 uL of sugar-free DMEM medium was added to each well. […]
At the end of the experiment, 50 uL of medium was taken from each well into a 96-well plate, and then cytotoxicity was detected according to the operating instructions of the LDH detection kit. The results were calculated as follows: […]

SMILES: C[C@@]12CCCC1C1C[C@@H](O)[C@]3(O)C[C@@H](O)CC[C@]3(C)C1CC2 (stereo partly drawn) [YC-6, 5α-androst-3β,5,6β-triol]
- protective effect compared with 10 μM dexamethasone (LDH release) (HPAEpiC cells; 10 μM, LPS and 1% O2 for 24 hours): significantly better protective effect than dexamethasone
- damage to alveolar epithelial cells (LDH release) induced by hypoxia and LPS (HPAEpiC cells; 1, 5, 10 μM, 1 hour pre-incubation, 20 μg/mL LPS and 1% O2 for 24 hours): dose-dependently reduce damage to alveolar epithelial cells
- OGD-R-induced increase in LDH release [1]: significantly reduced the OGD-R-induced increase in LDH release in a dose-dependent manner
